Test results as given in paper PMC4819005 (ACS chemical biology, 2015).
One block for each compound: values may come before it. Peptide text beside a SMILES is read from it.

Columns and labels:
[1] = test system: aP2 (FABP4) mRNA in SVF cells; experiment: qPCR of PPARγ target gene aP2; format: cell-based, murine; details: 5 μM compound, 3 days, normalized to GAPDH
3T3-L1 cells = experiment: In vitro adipocyte differentiation, Oil Red O staining for lipid accumulation; format: cell-based; details: differentiated 3T3-L1 preadipocytes, treated 2 or 3 days
PPARγ = details: cited from earlier work
[2] = Aggregation seen in SPR running buffer; format: physicochemical; details: PBS + 5%DMSO

Compound: CCC(NC(=O)c1ccc2c(ccn2S(=O)(=O)c2cccc3ccccc23)c1)c1ccccc1 (stereo not shown) [SR2067, 1-(Naphthalen-1-ylsulfonyl)-N-(1-phenylpropyl)-1H-indole-5-carboxamide]
expression levels of the PPARγ target gene aP2 [1]: lower than those observed in cells treated with the full agonist rosiglitazone but higher than those in cells exposed to the antagonist SR1664 | oil red staining for lipid accumulation (3T3-L1 cells): less than that of the full agonist rosiglitazone but higher than that of the antagonist SR1664

Compound: N[C@@H](Cc1c[nH]c2ccccc12)C(=O)N[C@@H](CCC(=O)O)C(=O)O [G3335] (H-Trp-Glu-OH)
kd (PPARγ): 0.028 s⁻¹

concentration above which concentration-dependent aggregation occurs [2]: above 30 μM
Compound: CN(CCOc1ccc(CC2SC(=O)NC2=O)cc1)c1ccccn1 (stereo not shown) [rosiglitazone, Rosiglitazone]
